Results as given in publication PMC7508162 (Frontiers in Pharmacology, 2020).

Assays:
human CD39 [1] = molecular target: T1, human CD39 (Homo sapiens, UniProt P49961); assay: Malachite green assay for CD39 (natural substrate ATP); assay type: biochemical; set-up: Human umbilical cord membrane preparations (250 ng) natively expressing high amounts of CD39; from tissue; host or cells: human umbilical cord membranes; details: natural substrate ATP 50 µM, n = 3, read-out: Ki ± SEM (converted)
T1 sequence (P49961 1-510): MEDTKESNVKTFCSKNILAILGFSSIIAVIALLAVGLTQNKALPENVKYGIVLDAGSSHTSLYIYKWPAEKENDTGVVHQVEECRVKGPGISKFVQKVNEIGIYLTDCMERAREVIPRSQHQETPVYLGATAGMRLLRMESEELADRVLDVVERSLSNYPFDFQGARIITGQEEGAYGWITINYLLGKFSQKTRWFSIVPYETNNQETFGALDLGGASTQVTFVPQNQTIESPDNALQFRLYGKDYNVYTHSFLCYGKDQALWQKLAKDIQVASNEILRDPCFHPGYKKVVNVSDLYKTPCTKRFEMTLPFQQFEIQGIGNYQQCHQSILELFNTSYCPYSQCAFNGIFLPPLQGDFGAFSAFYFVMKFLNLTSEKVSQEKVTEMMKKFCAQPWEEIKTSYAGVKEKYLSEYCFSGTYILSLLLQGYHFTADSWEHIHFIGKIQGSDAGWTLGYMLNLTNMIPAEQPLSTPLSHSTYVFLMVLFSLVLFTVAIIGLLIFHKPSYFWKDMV
Experimental: (§1) They were minced and homogenized with a polytron in 95 mM NaCl, 0.1 mM phenylmethylsulfonyl fluoride (PMSF), and 45 mM Tris solution, pH 7.6. […] The pellets were resuspended in 5 mM Tris buffer solution, pH 8.0 and 10% glycerol. All purification steps were performed at 4°C. The preparations were kept at −80°C.
The reaction buffer contained 10 mM HEPES, 2 mM CaCl2, 1 mM MgCl2, pH 7.4 in a final volume of 50 μl in transparent 96-well half area plates. For CD39 (NTPDase1), we made use of human umbilical cord membranes preparations which express high levels of the enzyme. For the other human NTPDase isoenzymes, we had to resort to recombinant expression. […] The amount of enzyme preparation was adjusted to ensure 10–20% of substrate conversion. […] The released (inorganic) phosphate was quantified after 20 min of gentle shaking at 25°C by measuring the absorption of the malachite green-phosphomolybdate complex at 600 nm using a BMG PheraStar FS plate reader (BMG Labtech GmbH, Ortenberg, Germany).
% Inhibition=(B−T)/B*100%
where B is the average corrected absorption of the positive control without inhibitor and T the corrected absorption in the presence of test compound.
Full concentration-inhibition curves were determined with inhibitor concentrations ranging from 0.1 to 300 µM in the presence of 2% DMSO. Three independent experiments were performed (n = 3) and curves were calculated by the GraphPad Prism 8 software. The Ki value was calculated using the Cheng-Prusoff equation for competitive inhibitors: […]

human CD39 [2] = molecular target: T1, human CD39; assay: Fluorescence capillary electrophoresis assay for CD39; assay type: biochemical; set-up: Human umbilical cord membrane preparations (250 ng) natively expressing high amounts of CD39; from tissue; host or cells: human umbilical cord membranes; details: fluorescent substrate PSB-017621A 0.5 µM; human umbilical cord membrane preparation; n = 3; Cheng-Prusoff; read-out: Ki ± SEM
Experimental: as §1
For inhibition screening, three independent experiments were performed. […] The reaction buffer contained 10 mM HEPES, 2 mM CaCl2, 1 mM MgCl2, pH 7.4. The samples were incubated at 37°C for 4 min, and the enzymatic reaction was terminated by heating at 90°C for 5 min. The solution was then diluted 1:20 with reaction buffer to perform separation of nucleotides by capillary electrophoresis (CE) followed by laser-induced fluorescence (LIF) detection. […] Three independent experiments were performed, and curves were calculated by GraphPad Prism 8 software (GraphPad software, San Diego, CA, USA).
Analysis was carried out using a P/ACE MDQ capillary electrophoresis system (Beckman Instruments, Fullerton, CA, USA). The separation was performed in a polyacrylamide-coated capillary [30 cm (10 cm effective length) × 50 µm (id), × 360 µm (od)]. Before each run, the capillary was rinsed with the background electrolyte [50 mM phosphate buffer (pH 6.5)] for 1 min at 30 psi. Samples were electrokinetically injected by applying a voltage of -6 kV for 30 s at the capillary outlet, and the fluorescent nucleotide derivatives were separated by voltage application of -15 kV. […] Data collection and peak area analysis were performed by the P/ACE MDQ software 32 KARAT obtained from Beckman Coulter (Fullerton, CA, USA).

Ki (human CD39 [1]): 3.35 µM
Ki (human CD39 [2]): 1.51 ± 0.4 µM
SMILES: CCCCNc1nc2c(NC)ncnc2n1[C@@H]1O[C@H](COP(=O)(O)OP(=O)(O)C(Br)(Br)P(=O)(O)O)[C@@H](O)[C@H]1O [Compound 33, (Dibromo((((((2R,3S,4R,5R)-5-(8-(butylamino)-6-(methylamino)-9H-purin-9-yl)-3,4-dihydroxy-tetrahydrofuran-2-yl)methoxy)(hydroxy)phosphoryl)oxy)-(hydroxy)phosphoryl)methyl)-phosphonic Acid]
